Data from patent US9399636B2, “Substituted dipyridylamines and uses thereof” (Genentech, Inc., priority 2012, dated 2016).
pKi: −log10 of the molar value.

The compounds below were run against T1, DLK (Homo sapiens, UniProt Q12852) (assay: DLK TR-FRET assay). Details: 5 nM GST-tagged DLK (catalytic domain amino acid 1-520), 40 nM HIS-tagged MKK4 K131M substrate, 30 μM ATP, 60 minutes.
T1 construct: N-terminally GST-tagged DLK (catalytic domain amino acid 1-520) (Carna Bioscience); GST (N); purchased Carna Bioscience
T1 sequence (Q12852 1-520): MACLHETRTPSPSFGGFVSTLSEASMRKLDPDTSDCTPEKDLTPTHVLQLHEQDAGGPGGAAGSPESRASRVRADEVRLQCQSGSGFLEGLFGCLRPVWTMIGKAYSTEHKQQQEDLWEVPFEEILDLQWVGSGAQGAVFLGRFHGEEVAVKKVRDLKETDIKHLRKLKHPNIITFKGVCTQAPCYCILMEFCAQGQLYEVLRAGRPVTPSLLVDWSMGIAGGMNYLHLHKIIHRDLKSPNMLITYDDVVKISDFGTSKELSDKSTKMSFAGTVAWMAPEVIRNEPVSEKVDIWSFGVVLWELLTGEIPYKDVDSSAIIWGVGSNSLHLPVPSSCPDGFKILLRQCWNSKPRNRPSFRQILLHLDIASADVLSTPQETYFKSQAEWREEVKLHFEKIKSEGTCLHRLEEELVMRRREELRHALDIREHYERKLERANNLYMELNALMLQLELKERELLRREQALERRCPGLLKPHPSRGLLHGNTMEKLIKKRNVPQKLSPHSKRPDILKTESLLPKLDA
Type: biochemical
Method: DLK TR-FRET assay: DLK kinase reactions (20 μL) containing 5 nM N-terminally GST-tagged DLK (catalytic domain amino acid 1-520) (Carna Bioscience), 40 nM N-terminally HIS-tagged MKK4 K131M substrate, and 30 μM ATP in kinase reaction buffer (50 mM HEPES, pH 7.5, 0.01% Triton X-100, 0.01% Bovine γ-Globulins, 2 mM DTT, 10 mM MgCl2 and 1 mM EGTA), and testing compound 1:3 serial diluted starting at 20 uM were incubated at ambient temperature for 60 minutes in 384 well OptiPlate (Perkin Elmer). To quench kinase reactions and detect phosphorylated MKK4, 15 μL of TR-FRET antibody mixture containing 2 nM anti-phosphorylated MKK4 labeled with Europium cryptate (Cisbio) and 23 nM anti-HIS labeled with D2 (Cisbio) in detection buffer (25 mM Tris pH 7.5, 100 mM NaCl, 100 mM EDTA, 0.01% Tween-20, and 200 mM KF) was added to the reaction mixture. The detection mixture was incubated for 3 hours at ambient temperature and the TR-FRET was detected with an EnVision multilabel plate reader (Perkin-Elmer) using the LANCE/DELFIA Dual Enh label from Perkin-Elmer (excitation filter: UV2 (TRF) 320 and emission filters: APC 665 and Europium 615).

SMILES | pKi
Cc1cc(C2(C#N)CCOCC2)cc(Nc2cc(C#N)ccn2)n1 [Example 64, 2-[4-(4-Cyano-tetrahydro-pyran-4-yl)-6-methyl-pyridin-2-ylamino]-isonicotinonitrile] | 6.77
N#Cc1ccnc(Nc2cc(C3CCN(C4COC4)CC3)cc(N3CC(F)(F)C3)n2)c1 [Example 89, 2-[6-(3,3-Difluoro-azetidin-1-yl)-1′-oxetan-3-yl-1′,2′,3′,4′,5′,6′-hexahydro-[4,4′]bipyridinyl-2-ylamino]-isonicotinonitrile] | 8.10
N#CC1(c2cc(Nc3cc(C(F)F)ccn3)nc(N3CCC3)c2)CCOCC1 [Example 53, 4-[2-Azetidin-1-yl-6-(4-difluoro-methyl-pyridin-2-ylamino)-pyridin-4-yl]-tetrahydro-pyran-4-carbonitrile] | 7.62
Cc1cc(C2CCN(CC(F)(F)F)CC2)cc(Nc2cc(C#N)ccn2)n1 [Example 72, 2-[6-Methyl-1′-(2,2,2-trifluoro-ethyl)-1′,2′,3′,4′,5′,6′-hexahydro-[4,4′]bipyridinyl-2-ylamino]-isonicotinonitrile] | 6.82
N#CC1(c2cc(Cl)nc(Nc3cc(C(F)F)ccn3)c2)CCOCC1 [Example 66, 4-[2-Chloro-6-(4-difluoromethyl-pyridin-2-ylamino)-pyridin-4-yl]-tetrahydro-pyran-4-carbonitrile] | 7.37
Cc1cc(C2CCN(C(=O)OC(C)(C)C)CC2)cc(Nc2cc(C#N)ccn2)n1 [Example 116, 2′-(4-Cyano-pyridin-2-ylamino)-6′-methyl-3,4,5,6-tetrahydro-2H-[4,4′]bipyridinyl-1-carboxylic acid tert-butyl ester] | 6.67
CN1CCCC(c2cc(Nc3cc(C(F)(F)F)ccn3)nc(N3CCC(F)(F)C3)c2)C1 (centres unmarked) [Example 138, [6′-(3,3-Difluoro-pyrrolidin-1-yl)-1-methyl-1,2,3,4,5,6-hexahydro-[3,4′]bipyridinyl-2′-yl]-(4-trifluoromethyl-pyridin-2-yl)-amine] | 9.77
CC(=O)N1CCC(c2cc(C)nc(Nc3cc(C#N)ccn3)c2)CC1 [Example 108, 2-(1′-Acetyl-6-methyl-1′,2′,3′,4′,5′,6′-hexahydro[4,4′]bipyridinyl-2-ylamino)-isonicotinonitrile] | 7.03
N#Cc1ccnc(Nc2cc(C3(C#N)CCOCC3)cc(N3CC(F)C3)n2)c1 [Example 46, 2-[4-(4-Cyano-tetrahydro-pyran-4-yl)-6-(3-fluoro-azetidin-1-yl)-pyridin-2-ylamino]-isonicotinonitrile] | 7.89
Cc1ccc(Nc2cc(C3CCN(C(=O)C4CCCCC4)CC3)ccn2)nc1 [Example 145, cyclohexyl(4-(2-((5-methylpyridin-2-yl)amino)pyridin-4-yl)piperidin-1-yl)methanone] | 5.44
N#Cc1ccnc(Nc2cc(C3(C#N)CCOCC3)cc(Cl)n2)c1 [Example 77, 2-[6-Chloro-4-(4-cyano-tetrahydro-pyran-4-yl)-pyridin-2-ylamino]-isonicotinonitrile] | 6.72
C[C@@H]1CCCN1c1cc(C2CCN(C3COC3)CC2)cc(Nc2cc(C#N)ccn2)n1 [Example 121, 2-[6-((R)-2-Methyl-pyrrolidin-1-yl)-1′-oxetan-3-yl-1′,2′,3′,4′,5′,6′-hexahydro-[4,4′]bipyridinyl-2-ylamino]-isonicotinonitrile] | 9.70
N#Cc1ccnc(Nc2cc(C3CCN(C4COC4)CC3)cc(N3CC4(COC4)C3)n2)c1 [Example 98, 2-[6-(2-Oxa-6-aza-spiro[3.3]hept-6-yl)-1′-oxetan-3-yl-1′,2′,3′,4′,5′,6′-hexahydro-[4,4′]bipyridinyl-2-ylamino]-isonicotinonitrile] | 7.37
COC1CN(c2cc(C3CCOCC3)cc(Nc3cc(C#N)ccn3)n2)C1 [Example 87, 2-[6-(3-Methoxy-azetidin-1-yl)-4-(tetrahydro-pyran-4-yl)-pyridin-2-ylamino]-isonicotinonitrile] | 7.29
FC1CN(c2cc(C3CCN(C4COC4)CC3)cc(Nc3cc(C(F)F)ccn3)n2)C1 [Example 44, (4-Difluoromethyl-pyridin-2-yl)-[6-(3-fluoro-azetidin-1-yl)-1′-oxetan-3-yl-1′,2′,3′,4′,5′,6′-hexahydro-[4,4′]bipyridinyl-2-yl]-amine] | 8.17
CC1CCCN1c1cc(C2CCN(C(=O)c3cn(C)cn3)C2)cc(Nc2cc(C(F)(F)F)ccn2)n1 (centres unmarked) [Example 133, (1-Methyl-1H-imidazol-4-yl)-{3-[2-(2-methyl-pyrrolidin-1-yl)-6-(4-trifluoromethyl-pyridin-2-ylamino)-pyridin-4-yl]-pyrrolidin-1-yl}-methanone] | 9.18
C[C@@H]1CCCN1c1cc(C2(C#N)CCNCC2)cc(Nc2cc(C#N)ccn2)n1 [Example 39, 2′-(4-Cyano-pyridin-2-ylamino)-6′-((R)-2-methyl-pyrrolidin-1-yl)-2,3,5,6-tetrahydro-1H-[4,4′]bipyridinyl-4-carbonitrile] | 9.77
Cc1cc(C2CCNCC2)cc(Nc2cc(C#N)ccn2)n1 [Example 111, 2-(6-Methyl-1′,2′,3′,4′,5′,6′-hexahydro-[4,4′]bipyridinyl-2-ylamino)-isonicotinonitrile] | 7.05
COC1CCN(c2cc(C3CCOCC3)cc(Nc3cc(C#N)ccn3)n2)C1 (centres unmarked) [Example 101, 2-[6-(3-Methoxy-pyrrolidin-1-yl)-4-(tetrahydro-pyran-4-yl)-pyridin-2-ylamino]-isonicotinonitrile] | 7.42
N#Cc1ccnc(Nc2cc(C3(C#N)CCNCC3)cc(N3CCC3)n2)c1 [Example 38, 6′-Azetidin-1-yl-2′-(4-cyano-pyridin-2-ylamino)-2,3,5,6-tetrahydro-1H-[4,4′]bipyridinyl-4-carbonitrile] | 8.66
N#CC1(c2cc(Nc3cc(C(F)F)ccn3)nc(N3CC4CC4C3)c2)CCOCC1 (centres unmarked) [Example 52, 4-[2-(3-Aza-bicyclo[3.1.0]hex-3-yl)-6-(4-difluoromethyl-pyridin-2-ylamino)-pyridin-4-yl]-tetrahydro-pyran-4-carbonitrile] | 8.70
C[C@@H]1CCCN1c1cc(C2(C#N)CCN(C3COC3)CC2)cc(Nc2cc(C#N)ccn2)n1 [Example 30, 2′-(4-Cyano-pyridin-2-ylamino)-6′-((R)-2-methyl-pyrrolidin-1-yl)-1-oxetan-3-yl-2,3,5,6-tetrahydro-1H-[4,4′]bipyridinyl-4-carbonitrile] | 9.77
CS(=O)(=O)N1CC(c2cc(Nc3cc(C(F)(F)F)ccn3)nc(N3CCC(F)(F)C3)c2)C1 [Example 126, [6-(3,3-Difluoro-pyrrolidin-1-yl)-4-(1-methanesulfonyl-azetidin-3-yl)-pyridin-2-yl]-(4-trifluoromethyl-pyridin-2-yl)-amine] | 8.18
N#Cc1ccnc(Nc2cc(C3(C#N)CCNCC3)cc(N3CC4CC4C3)n2)c1 (centres unmarked) [Example 40, 6′-(3-Aza-bicyclo[3.1.0]hex-3-yl)-2′-(4-cyano-pyridin-2-ylamino)-2,3,5,6-tetrahydro-1H-[4,4′]bipyridinyl-4-carbonitrile] | 9.77
FC(F)c1ccnc(Nc2cc(C3CCN(C4COC4)CC3)cc(N3CCC(F)(F)C3)n2)c1 [Example 71, (4-Difluoromethyl-pyridin-2-yl)-[6-(3,3-difluoro-pyrrolidin-1-yl)-1′-oxetan-3-yl-1′,2′,3′,4′,5′,6′-hexahydro-[4,4′]bipyridinyl-2-yl]-amine] | 9.44
N#CC1(c2cc(Nc3cc(C(F)F)ccn3)nc(N3CCC(F)(F)C3)c2)CCOCC1 [Example 56, 4-[2-(4-Difluoromethyl-pyridin-2-ylamino)-6-(3,3-difluoro-pyrrolidin-1-yl)-pyridin-4-yl]-tetrahydro-pyran-4-carbonitrile] | 8.68
N#Cc1ccnc(Nc2cc(C3(C#N)CCOCC3)cc(N3CC4CC(F)(F)C4C3)n2)c1 (centres unmarked) [Example 69, 2-[4-(4-Cyano-tetrahydro-pyran-4-yl)-6-(6,6-difluoro-3-aza-bicyclo[3.2.0]hept-3-yl)-pyridin-2-ylamino]-isonicotinonitrile] | 8.40
Cc1cc(C2CCN(C3COC3)CC2)cc(Nc2cc(C#N)ccn2)n1 [Example 110, 2-(6-Methyl-1′-oxetan-3-yl-1′,2′,3′,4′,5′,6′-hexahydro-[4,4′]bipyridinyl-2-ylamino)-isonicotinonitrile] | 7.03
COC1CCN(c2cc(C3CCN(C4COC4)CC3)cc(Nc3cc(C#N)ccn3)n2)C1 (centres unmarked) [Example 88, 2-[6-(3-Methoxy-pyrrolidin-1-yl)-1-oxetan-3-yl-1′,2′,3′,4′,5′,6′-hexahydro-[4,4′]bipyridinyl-2-ylamino]-isonicotinonitrile] | 8.55
